According to patent EP0638553A1, “Carboxylic acid amides having a terminal carboxylic acid group as aggregation inhibiting drugs” (Dr. Karl Thomae GmbH, priority 1993, dated 1995):
Where a name gives a salt, the structure may show the parent alone.

Experiments:
Humanthrombozyten = assay: Inhibition of the binding of ³H-BIBU 52 to human platelets (fibrinogen binding test); conditions: displacement of ³H-BIBU 52 (5 nM) from human platelets in plasma, 20 min at room temperature; read-out: Fibrinogen-Bindungstest IC₅₀
Source text: 1. Hemmung der Bindung von ³H-BIBU 52 an Humanthrombozyten:
Eine Suspension von Humanthrombozyten in Plasma wird mit ³H-BIBU 52 [= (3S,5S)-5-[(4'-Amidino-4-biphenylyl)oxymethyl]-3-[(carboxyl)methyl]-2-pyrrolidinon[3-³H-4-biphenylyl]], das den literaturbekannten Liganden ¹²⁵J-Fibrinogen ersetzt, (siehe deutsche Patentanmeldung P 42 14 245.8 der gleichen Anmelderin vom 30. 04. 1992, internes Zeichen: Case 5/1093-FL) und verschiedenen Konzentrationen der zu testenden Substanz inkubiert. Der freie und gebundene Ligand wird durch Zentrifugation getrennt und durch Szintillationszählung quantitativ bestimmt. Aus den Meßwerten wird die Hemmung der ³H-BIBU 52-Bindung durch die Testsubstanz bestimmt.
Hierzu wird aus einer Antikubitalvene Spenderblut entnommen und mit Trinatriumzitrat antikoaguliert (Endkonzentration 13 mM). Das Blut wird 10 Minuten bei 170 x g zentrifugiert und das überstehende plättchenreiche Plasma (PRP) abgenommen. Das Restblut wird zur Gewinnung von Plasma noch einmal scharf abzentrifugiert. Das PRP wird mit autologem Plasma 1:10 verdünnt. 750 ml werden mit 50 ml physiologischer Kochsalzlösung, 100 ml Testsubstanzlösung, 50 ml ¹⁴C-Sucrose (3.700 Bq) und 50 ml ³H-BIBU 52 (Endkonzentration: 5 nM) bei Raumtemperatur 20 Minuten inkubiert. Zur Messung der unspezifischen Bindung wird anstelle der Testsubstanz 5 ml BIBU 52 (Endkonzentration: […]) eingesetzt. Die Proben werden 20 Sekunden bei 10000 x g zentrifugiert und der Überstand abgezogen. 100 ml hiervon werden zur Bestimmung des freien Liganden gemessen. Das Pellet wird in 500 ml 0,2N NaOH gelöst, 450 ml werden mit 2 ml Szintillator und 25 ml 5N HCl versetzt und gemessen. Das im Pellet noch verbliebene Restplasma wird aus dem ¹⁴C-Gehalt bestimmt, der gebundene Ligand aus der ³H-Messung. Nach Abzug der unspezifischen Bindung wird die Pelletaktivität gegen die Konzentration der Testsubstanz aufgetragen und die Konzentration für eine 50%ige Hemmung der Bindung ermittelt.

Thrombozytenaggregation = assay: Collagen-induced platelet aggregation in platelet-rich plasma (method of Born and Cross); format: cell-based; conditions: human platelet-rich plasma, 10 min preincubation at 37°C, 50% change of optical density, read-out: Hemmung der Plättchenaggregation EC₅₀
Source text: 2. Antithrombotische Wirkung
Die Thrombozytenaggregation wird nach der Methode von Born und Cross (J. Physiol. 170, 397 (1964)) in plättchenreichem Plasma gesunder Versuchspersonen gemessen. Zur Gerinnungshemmung wird das Blut mit Natriumcitrat 3,14 % im Volumenverhältnis 1:10 versetzt.
Collagen-induzierte Aggregation
Der Verlauf der Abnahme der optischen Dichte der Plättchensuspension wird nach Zugabe der aggregationsauslösenden Substanz photometrisch gemessen und registriert. Aus dem Neigungswinkel der Dichtekurve wird auf die Aggregationsgeschwindigkeit geschlossen. Der Punkt der Kurve, bei dem die größte Lichtdurchlässigkeit vorliegt, dient zur Berechnung der "optical density".
Die Collagen-Menge wird möglichst gering gewählt, aber doch so, daß sich eine irreversibel verlaufende Reaktionskurve ergibt. Verwendet wird das handelsübliche Collagen der Firma Hormonchemie, München.
Vor der Collagen-Zugabe wird das Plasma jeweils 10 Minuten mit der Substanz bei 37°C inkubiert.
Aus den erhaltenen Meßzahlen wird graphisch eine EC₅₀ bestimmt, die sich auf eine 50%ige Änderung der "optical density" im Sinne einer Aggregationshemmung bezieht.

Maus = assay: Tolerability after intravenous administration to the mouse; format: in vivo; conditions: 30 mg/kg intravenous, 3 animals tested

| Structure (SMILES) | IC50 (Humanthrombozyten) [µM] | EC50 (Thrombozytenaggregation) [µM] | Mortality (verstorbene Tiere) (Maus) |
| --- | --- | --- | --- |
| O=C(O)CC1CCN(C(=O)c2ccc(CCC34CCN(CC3)CC4)cc2)CC1 [1(1), 4-Carboxymethyl-1-[4-[2-(4-chinuclidinyl)-ethyl]-benzoyl]-piperidin] | 0.36 | 0.61 | – |
| O=C(N[C@H]1CC[C@H](C(=O)O)CC1)c1ccc(CCC23CCN(CC2)CC3)cc1 [1(2), trans-4-[4-[2-(4-Chinuclidinyl)-ethyl]-benzoylamino]-cyclohexancarbonsäure] | – | – | keines der 3 getesteten Tiere verstarb |
| CCCCS(=O)(=O)NC1(C(=O)O)CCC(NC(=O)N2CCC(OCC3CCNCC3)CC2)CC1 (stereo not drawn) [1(7), N-[1-Carboxy-cis-4-[[4-[(4-piperidinyl)-methyloxy]-1-piperidinyl]-carbonylamino]-cyclohexyl]-n-butansulfonamid] | 1.5 | 3.1 | – |
| NC1(C(=O)O)CCC(NC(=O)N2CCC(OCC3CCNCC3)CC2)CC1 (stereo not drawn) [1(9), 1-Carboxy-cis-4-[[4-[(4-piperidinyl)-methyloxy]-1-piperidinyl]-carbonylamino]-cyclohexylamin] | 0.13 | 1.3 | – |
| O=C(O)CN(CCNC(=O)N1CCC(OCC2CCNCC2)CC1)CC(=O)O [1(14), N-Carboxymethyl-N-[2-[[4-[(4-piperidinyl)-methyloxy]-1-piperidinyl]-carbonylamino]-ethyl]-glycin] | 6.9 | 23 | – |
| O=C(NC1CCNCC1)c1ccc(C(=O)N[C@H]2CC[C@H](C(=O)O)CC2)cc1 [3(4), trans-4-[4-[(4-Piperidinyl)-aminocarbonyl]-benzoylamino]-cyclohexancarbonsäure-hydrochlorid] | 2.1 | 2.06 | – |
| O=C(O)CCC1CCN(C(=O)c2ccc(NCC3CCNCC3)cc2)CC1 [3(7), 4-(2-Carboxy-ethyl)-1-[4-[[(4-piperidinyl)-methyl]-amino]-benzoyl]-piperidin-hydrochlorid] | 49 | 45 | – |
| O=C(O)CC1CCN(C(=O)c2ccc(NCC3CCNCC3)cc2)CC1 [3(8), 4-Carboxymethyl-1-[4-[[(4-piperidinyl)-methyl]-amino]-benzoyl]-piperidin-hydrochlorid] | 6.4 | 5.8 | – |
| O=C(N[C@H]1CC[C@H](C(=O)O)CC1)c1ccc(NC(=O)C2CCNCC2)cc1 [3(9), trans-4-[4-[(4-Piperidinyl)-carbonylamino]-benzoylamino]-cyclohexancarbonsäure-hydrochlorid] | 2.3 | 3.2 | – |
| O=C(N[C@H]1CC[C@H](C(=O)O)CC1)c1cccc(OCC2CCNCC2)c1 [3(15), trans-4-[3-[(4-Piperidinyl)-methyloxy]-benzoylamino]-cyclohexancarbonsäure-hydrochlorid] | 0.63 | 1.2 | – |
| O=C(N[C@H]1CC[C@H](C(=O)O)CC1)N1CCC(COC2CCNCC2)CC1 [3(16), trans-4-[[4-[(4-Piperidinyl)-oxymethyl]-1-piperidinyl]-carbonylamino]-cyclohexancarbonsäure-hydrochlorid] | 0.16 | 0.27 | – |
| O=C(N[C@H]1CC[C@H](C(=O)O)CC1)N1CCC(OCC2CCNCC2)CC1 [3(17), trans-4-[[4-[(4-Piperidinyl)-methyloxy]-1-piperidinyl]-carbonylamino]-cyclohexancarbonsäure] | 0.091 | 0.3 | keines der 3 getesteten Tiere verstarb |
| O=C(N[C@H]1CC[C@H](C(=O)O)CC1)c1ccc(OCC2CCNCC2)cc1 [3(23), trans-4-[4-[(4-Piperidinyl)-methyloxy]-benzoylamino]-cyclohexancarbonsäure-hydrochlorid] | 0.19 | 0.27 | – |
| NCC1CCc2cc(C(=O)N[C@H]3CC[C@H](CCC(=O)O)CC3)ccc2C1 (stereo partly drawn) [3(24), 3-[trans-4-[(2-Aminomethyl-1,2,3,4-tetrahydro-6-naphthyl)-carbonylamino]-cyclohexyl]-propionsäure-hydrochlorid] | 1.5 | 4.41 | – |
| O=C(N[C@H]1CC[C@H](C(=O)O)CC1)c1ccc(CCc2ccncc2)cc1 [3(30), trans-4-[4-[2-(4-Pyridyl)-ethyl]-benzoylamino]-cyclohexan-carbonsäure-hydrochlorid] | 1.2 | 1.07 | – |
| NCCc1ccc(C(=O)N[C@H]2CC[C@H](CCC(=O)O)CC2)cc1 [3(32), trans-1-[4-(2-Amino-ethyl)-benzoylamino]-4-(2-carboxyethyl)-cyclohexan-hydrochlorid] | – | 1.2 | – |
| COC(=O)[C@H]1CC[C@H](NC(=O)N2CCC(OCC3CCNCC3)CC2)CC1 [4(23), trans-4-[[4-[(4-Piperidinyl)-methyloxy]-1-piperidinyl]-carbonylamino]-cyclohexancarbonsäure-methylester-hydrochlorid] | 0.18 | 0.37 | keines der 3 getesteten Tiere verstarb |
| NCCOc1ccc(C(=O)N[C@H]2CC[C@H](CCC(=O)O)CC2)cc1 [4(32)] | 0.13 | 0.97 | – |
| NCCOc1ccc(C(=O)N[C@H]2CC[C@H](OCC(=O)O)CC2)cc1 [4(34)] | 0.84 | 3.37 | – |
| O=C(N[C@H]1CC[C@H](C(=O)O)CC1)c1cccc(CCC23CCN(CC2)CC3)c1 [Beispiel 1, trans-4-[3-[2-(4-Chinuclidinyl)-ethyl]-benzoylamino]-cyclohexancarbonsäure] | 0.55 | 1.7 | – |
| O=C(N[C@H]1CC[C@H](C(=O)O)CC1)c1ccc(OCC23CCN(CC2)CC3)cc1 [Beispiel 3, trans-4-[4-[(4-Chinuclidinyl)-methyloxy]-benzoylamino]-cyclohexancarbonsäure-hydrochlorid] | 0.085 | 0.36 | keines der 3 getesteten Tiere verstarb |
